Assay results reported in patent US20080103209A1, “Compounds And Methods For Treating Non-Inflammatory Pain Using Ppar Alpha Agonists” (The Regents of The University of California, priority 2004, published 2008).

Key:
[1] = biological target: T1, human PPARα (Homo sapiens, UniProt Q07869); assay: PPARα transactivation assay (HeLa cells, luciferase reporter); assay type: cell-based; conditions: HeLa cells, n=12; read-out: half-maximal effective concentration (EC50), PPARα activation
T1 construct: expressed in transfected cells
T1 sequence (Q07869 239-466 limits assumed): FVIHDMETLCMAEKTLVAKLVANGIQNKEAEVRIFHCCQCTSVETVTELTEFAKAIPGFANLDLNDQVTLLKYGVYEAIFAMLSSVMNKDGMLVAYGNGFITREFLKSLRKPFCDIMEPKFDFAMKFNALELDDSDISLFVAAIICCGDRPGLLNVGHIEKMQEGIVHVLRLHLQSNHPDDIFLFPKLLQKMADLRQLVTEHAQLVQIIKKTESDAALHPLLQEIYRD
Method: Transactivation assays were performed as previously described [Fu et al., Nature 425:90-93 (2003)].
PPAR-α transactivation. Plasmids were generated which contained the ligand-binding domain of human PPAR-α (nucleotides 499-1,407) fused to the DNA-binding domain of yeast GAL4 under control of the human cytomegalovirus promoter and to a neomycin resistance gene to provide stable selection with 0.2 mg-ml-1 G418 (Calbiochem). We cultured HeLa cells in Dulbecco's-modified Eagles's medium (DMEM) supplemented with fetal bovine serum (10%), transfected them with Fugene 6 ([…], Roche) containing the pFR-luc plasmid ([…], Stratagene) and, 18 h later, replaced the media with DMEM containing hygromycin (0.1 mg ml−1, Calbiochem). […] Cells were maintained in DMEM containing hygromycin and G418. For transactivation assays, we seeded cells in 6-well plates and incubated them for 7 h in DMEM containing hygromycin and G418, plus appropriate concentrations of test compounds. We used a dual-luciferase reporter assay system (Promega) and an MLX Microtiter® plate luminometer (Dynex) to determine luciferase activity in cell lysates.

[2] = tested on: mice; assay: Carrageenan-evoked paw edema (acute); assay type: in vivo, mouse; conditions: wild-type C57Bl6J; PEA 10 mg-kg^−1 i.p., WY-14643 20 mg-kg^−1 i.p.
Description: In addition to rapid-onset analgesia, PEA also exerts prolonged anti-inflammatory effects [Benvenuti, et al., Boll Soc It Biol Sper 44, 809-813 (1968); Lambert, et al., Curr Med. Chem. 9, 663-74 (2002)], which are associated with the down-regulation of pro-inflammatory proteins such as nitric oxide synthase (NOS) [Costa, et al., Br J Pharmacol 137, 413-20. (2002)]. Two models of acute inflammation were used to examine whether such effects are mediated through PPARα. First, paw edema was induced in C57B16J wild-type and PPARα^−/− mice by local injection of the irritant, carrageenan [Cirino, et al., Eur J Pharmacol 166, 505-10 (1989)]. […] Next, ear edema was produced in CD1 mice by topical administration of the phorbol ester, 12-O-tetradecanoylphorbol-13-acetate (TPA) [Sheu, et al., J Invest Dermatol., 94-101. (2002)]. […] In a parallel set of experiments, the effects of PEA (20 μg) on TPA-induced edema were tested in C57B16J wild-type and PPARα^−/− mice. […] Together, these findings indicate that PEA reduces acute nociception and inflammation through activation of PPARα.
An inflammatory response was initiated by injecting 2% (w v^−1, 20 μl) λ-carrageenan in sterile saline into mice hind paws using a 27-gauge needle. Drugs were administered 30 minutes before carrageenan (i.p.). Paw edema was measured using a plethysmometer (Ugo Basile, Italy).

[3] = tested on: PKA-IIα regulatory subunit phosphorylation on Ser^96; assay: Immunoblot of lumbar spinal cord extracts, phosphorylated PKA regulatory subunit; assay type: in vivo, mouse; conditions: neuropathic mice, PEA 30 mg-kg^−1 s.c. once daily for two weeks
Method: Opiate analgesics have a high liability to produce tolerance, a progressive loss of pharmacological activity caused by repeated drug administrations (Waldhoer et al., Annu Rev Biochem, 73, 953 (2004)). To assess whether tolerance develops to the antihyperalgesic effects of PPARα agonists, PEA (30 mg-kg^−1, s.c.) was administered once a day for 14 consecutive days from the time of surgery, measuring mechanical and thermal hyperalgesia at day 7 and 14.
Immunoblot analysis. Lumbar spinal cord tissue was weighed, homogenized in Tris-HCl (20 mM, pH 7.5), 10 mM NaF, 150 mM NaCl, 1% Nonidet P-40, 1 mM PMSF, 1 mM Na3VO4, leupeptin and trypsin inhibitor (10 μg/ml). After 1 h, the tissue lysates were subjected to centrifugation ay 100,000×g for 15 min at 4° C. Protein concentrations were estimated using a Bio-Rad protein assay and bovine serum albumin as a standard. Equal amounts of protein (20 μg) were dissolved in Laemmli sample buffer, boiled for 5 min, subjected to sodium dodecyl sulphate-polyacrylamide gel electrophoresis (8% polyacrylamide) and transferred onto nitrocellulose membranes at 240 mA for 40 min at room temperature. […] The films were scanned and densitometrically analysed with a model GS-700 imaging densitometer.

[4] = Tissue PEA levels after subcutaneous PEA (LC/MS); assay type: in vivo, mouse; conditions: daily PEA injections s.c.
Method: LC/MS analysis. PEA was measured by high-performance liquid chromatography/tandem mass spectrometry. Tissue samples were weighed, cut into 1 mm^2 pieces, and incubated with 1 mL of acetonitrile at 4° C. overnight. Samples of the incubates (100 μl) were transferred to 96-well plates, diluted with 250 μL of acetonitrile containing [H2]-ethanolamine-OEA as an internal standard, and injected into the HPLC. HPLC analyses were carried out on a Waters 2790 Alliance system (Milford, Mass.) using a Phenomenex Synergi Polar-RP column (2 mm×150 mm, 4μ; Torrance, Calif.) and a mobile phase of 0.1% formic acid in water (solvent “A”) and 0.1% formic acid in acetonitrile (solvent “B”). Run conditions were isocratic (25% A and 75% B), at a flow rate of 0.3 mL min^−1, column temperature of 45° C., and a run time of 3 minutes. The HPLC system was interfaced with a Micromass Ultima (Beverly, Mass.) tandem mass spectrometer. The samples were analyzed using an electrospray probe in the positive ionization mode with the cone voltage set at 40 V and capillary at 3.2 kV. The source and desolvation temperature settings were 130° C. and 500° C., respectively. The voltage of the CID chamber was set at −17 eV. Multiple reaction monitoring was used for the detection of PEA as [M+H]^+ (m/z 300>62) and the standard as [M+H]^+ (m/z 330>66).

## CCCCCCCCCCCCCCCC(=O)NCCO [PEA, palmitoylethanolamide]
[1]
  EC50: 3 µM
[2]
  carrageenan paw edema in wild-type mice: decreased edema
[3]
  phosphorylation of PKA-IIα regulatory subunit at Ser^96: reduced
[4]
  brain PEA levels vs vehicle-treated mice: significantly higher
